Entries after “also recorded” stand apart in the source; their conditions may differ. Where two headings read alike, the source gives them in different places. One block for each molecule: values may come before it.
Assays:
[1] = test system: TNNT2 minigene exon 5 splicing in HeLa cells expressing 960 CUG repeats; experiment: TNNT2 minigene splicing rescue in HeLa cell DM1 model; type: cell-based; conditions: for rescue of TNNT2 exon 5 mis-splicing: propamidine up to 130 μM; for EC50: read-out: concentration needed to observe 50% rescue (EC50) of TNNT2 mis-splicing, exon 5 inclusion, 16-18 hours
[2] = test system: INSR minigene exon 11 splicing in HeLa cells expressing 960 CUG repeats; experiment: INSR minigene splicing rescue in HeLa cell DM1 model; type: cell-based; conditions: for EC50: HeLa cell DM1 model, exon 11 inclusion, 16-18 hours, read-out: EC50 for rescue of INSR mis-splicing
MBNL1/(CUG)4 complex = biological target: T1, MBNL1/(CUG)4 complex (Homo sapiens, UniProt Q9NR56); experiment: competitive EMSA (gel shift assay), disruption of the MBNL1/(CUG)4 complex; type: binding
T1 construct: The MBNL1 medium construct (1-260) was purified as previously described; made in house
T1 sequence (Q9NR56 1-260): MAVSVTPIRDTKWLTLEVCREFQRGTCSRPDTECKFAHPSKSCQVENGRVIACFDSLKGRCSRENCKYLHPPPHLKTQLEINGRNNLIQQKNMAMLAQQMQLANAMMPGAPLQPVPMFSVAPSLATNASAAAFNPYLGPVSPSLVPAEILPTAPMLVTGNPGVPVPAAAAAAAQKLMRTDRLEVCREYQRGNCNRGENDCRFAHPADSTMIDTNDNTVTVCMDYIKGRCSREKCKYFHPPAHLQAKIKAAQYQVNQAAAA

HSALR mice = experiment: electromyography, myotonia grade in vastus muscle of HSALR mice; type: in vivo; conditions: 20 or 30 mg/kg for 7 days, controls grade 3
Experimental: (§1) Homozygous HSALR transgenic mice in line 20b (FVB inbred background) were previously described (Mankodi et al., Science 289″1769-1773, 2000). Gender-matched mice of 10-14 weeks of age were treated with heptamidine at the indicated dose by daily intraperitoneal injection for 7 days. Control mice received 5% glucose injections. Mice were sacrificed 1 d after the final injection and vastus (quadriceps) muscle was obtained for splicing analysis. Mice in the withdrawal (WD) group were treated with 30 mg/kg heptamidine for 7 days and then left untreated for 10 days before sacrifice. […] RNA was isolated, reverse transcribed, and amplified by PCR, and analyzed on agarose gels using a fluorimager as previously described (Warf et al., Proc. Natl. Acad. Sci. USA 106:18551-18556, 2009).
Electromyography was performed under general anesthesia as described previously (Kanadia, Science 302:1978-1980, 2003). Briefly, at least 10 needle insertions were performed in vastus muscle and myotonic discharges were graded on a four point scale: 0, no myotonia; 1, occasional myotonic discharge in less than 50% of needle insertions; 2, myotonic discharge with more than 50% of insertions; and 3, myotonic discharge with nearly all insertions.

Atp2a1 exon 22 = Atp2a1 exon 22 splicing in vastus muscle of HSALR DM1 mice; type: in vivo
Experimental: as §1
The MBNL regulated exon of Atp2a1 (exon 22) is included in the presence of MBNL proteins (positively regulated). Wild type adult mice included this exon 100±1% of the time (FIG. 4). When MBNL proteins are sequestered by the 220 CUG repeats present in HSALR mice, exon 22 inclusion drops to 23±3%. […] Additionally, after being treated with 30 mg/kg heptamidine for 7 d, mice went untreated for 10 days, and splicing of Clcn1 and Atp2a1 was examined. […] The severity of myotonia was graded by insertion of extracellular recording electrodes into muscle tissue (electromyography) under general anesthesia.

Clcn1 exon 7a = Clcn1 exon 7a splicing in vastus muscle of HSALR DM1 mice; type: in vivo
Experimental: as §1
The HSA^LR DM1 mouse model expresses 220 CUG repeats under the skeletal promoter (Mankodi et al., Science 289″1769-1773, 2000). […] Wild type adult mice include exon 7a of the Clcn1 pre-mRNA at a level of 4±1% while HSA^LR mice include exon 7a at steady state levels of 47±1% (FIG. 3, note that exon 7a inclusion isoforms are subject to nonsense mediated decay).

water solubility = type: physicochemical
[3] = biological target: T2, MBNL1 (residues 1-260, medium construct) (UniProt Q9NR56 Q9NR56:1-260); experiment: EMSA; 250 nM MBNL1, 0.5 nM RNA, 175 mM NaCl, 5 mM MgCl2, 20 mM Tris pH 7.5, heparin 0.1 mg/mL, RT; complex disrupted by diamidines (pentamidine IC50 39 uM, small-molecule competition); conditions: label: 5'-32P; hairpin with UUCG cap
T2 sequence: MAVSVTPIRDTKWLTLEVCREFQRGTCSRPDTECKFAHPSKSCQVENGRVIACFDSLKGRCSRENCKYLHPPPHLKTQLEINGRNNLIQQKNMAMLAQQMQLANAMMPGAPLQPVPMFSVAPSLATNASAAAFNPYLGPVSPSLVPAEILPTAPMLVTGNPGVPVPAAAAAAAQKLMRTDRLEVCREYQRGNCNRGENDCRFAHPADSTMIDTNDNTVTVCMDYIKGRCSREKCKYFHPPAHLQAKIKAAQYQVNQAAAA
Experimental: The 5′ end labeled (CUG)₄ RNA was heated at 95° C. for 3 minutes in 250 mM NaCl, 25 mM MgCl₂, and 75 mM Tris pH 7.5 by heating at 95° C. for 3 minutes. The reaction was cooled on ice for 5 minutes, BSA and heparin were added, and the reaction cooled another 5 minutes. MBNL1 was then added to the RNA and incubated at room temperature (RT) for 10 minutes. Amidine derivative was added, followed by another 5 minute RT incubation, followed by the addition of bromophenol blue. The final reaction volume of 10 μL was incubated at RT for 25 minutes. Final reaction conditions were 0.5 nM (CUG)₄, 175 mM NaCl, 20 mM Tris pH 7.5, 5 mM MgCl₂, 2 mg/mL BSA, 0.1 mg/mL heparin, 1.25 mM β-mercaptoethanol, 1.25% (v/v) glycerol, 250 μM bromophenol blue, and 250 nM MBNL. Bromophenol blue was added at 250 μM since the activity of pentamidine is dependent upon bromophenol blue in vitro. […] IC₅₀ values were calculated as previously described (Warf et al., Proc. Natl. Acad. Sci. USA 106:18551-18556, 2009). In brief, gels were quantified using ImageQuant™ software (Molecular Dynamics/GE Healthcare, Piscataway, N.J.). The percent of RNA bound was determined by taking the ratio of the RNA:protein complex (including any well shifting) to the total RNA, per lane. IC₅₀ values were determined with KaleidaGraph (Synergy, Reading, Pa.) software using the equation: […]

[4] = competitive EMSA, 250 nM MBNL, 0.5 nM (CUG)4, 250 μM bromophenol blue, ± standard deviation of triplicate, read-out: IC50 of diamidine analogs
[5] = 30 mg/kg for 7 days, then 10 days untreated
[6] = HSALR mice, daily intraperitoneal for 7 days
[7] = competitive EMSA as in Example 1, Table 2, read-out: IC50 of diamidine derivatives

EC50 ([1]; Homo sapiens): 15 ± 6 µM
water solubility (water solubility): retaining water solubility
EC50 ([2]; Homo sapiens): 9 ± 1 µM
IC50 (MBNL1/(CUG)4 complex; [4]): 20 ± 2 µM
Molecule: N=C(N)c1ccc(OCCCCCCCOc2ccc(C(=N)N)cc2)cc1 [Heptamidine]
myotonia grade (electromyography) (HSALR mice): grade 1 (occasional myotonic discharge) or grade 0; also recorded: occasional myotonic discharges with less than 50% of insertions (grade 1) or no myotonia (grade 0)
Atp2a1 splicing after withdrawal (Atp2a1 exon 22; [5]): exon inclusion levels returned to control HSALA levels; also recorded: complete return to disease state splicing levels
rescue of Atp2a1 exon 22 missplicing (Atp2a1 exon 22; HSALR mice, 30 mg/kg): about 50%
Atp2a1 exon 22 inclusion (Atp2a1 exon 22; HSALR mice, 30 mg/kg/day for 7 days, wild type 100±1%, HSALR 23±3%): 62±4%
rescue of Atp2a1 exon 22 mis-splicing (Atp2a1 exon 22; [6]): full rescue with heptamidine could not be reached; also recorded: Partial rescue of missplicing
Clcn1 splicing after withdrawal (Clcn1 exon 7a; [5]): exon inclusion levels returned to control HSALA levels; also recorded: complete return to disease state splicing levels
Clcn1 exon 7a inclusion (Clcn1 exon 7a; HSALR mice, 20 mg/kg daily intraperitoneal for 7 days, wild type 4±1%, HSALR 47±1%): 6±1%
rescue of Clcn1 exon 7a mis-splicing (Clcn1 exon 7a; [6]): dose-dependent reduction of exon 7a inclusion; also recorded: Complete rescue

EC50 ([1]; Homo sapiens): 20 ± 4 µM
EC50 ([2]; Homo sapiens): 31 ± 2 µM
IC50 (MBNL1/(CUG)4 complex; [4]): 39 ± 2 µM
Molecule: N=C(N)c1ccc(OCCCCCOc2ccc(C(=N)N)cc2)cc1 [Pentamidine, reference compound]
rescue of TNNT2 exon 5 mis-splicing [1]: lowered exon 5 inclusion levels below that of wild type

IC50 (MBNL1/(CUG)4 complex; [7]): 281 µM
Molecule: N=C(N)c1ccc(OCCCOc2ccccc2)cc1 [drawing 8 n=3]

IC50 (MBNL1/(CUG)4 complex; [7]): 209 µM
Molecule: N=C(N)c1ccc(OCCCCOc2ccccc2)cc1 [drawing 8 n=4]

IC50 (MBNL1/(CUG)4 complex; [7]): 199 µM
Molecule: N=C(N)c1ccc(OCCCCCOc2ccccc2)cc1 [drawing 8 n=5]

IC50 (MBNL1/(CUG)4 complex; [7]): 236 µM
Molecule: N=C(N)c1ccc(OCCCCCCOc2ccccc2)cc1 [drawing 8 n=6]

IC50 (MBNL1/(CUG)4 complex; [7]): 253 µM
Molecule: N=C(N)c1ccc(OCCCCCCCOc2ccccc2)cc1 [drawing 8 n=7]

IC50 (MBNL1/(CUG)4 complex; [7]): 414 µM
Molecule: N=C(N)c1ccc(OCCc2ccccc2)cc1 [drawing 9 n=2]

IC50 (MBNL1/(CUG)4 complex; [7]): 169 µM
Molecule: N=C(N)c1ccc(OCCCc2ccccc2)cc1 [drawing 9 n=3]

IC50 (MBNL1/(CUG)4 complex; [7]): 212 µM
Molecule: N=C(N)c1ccc(OCCCCc2ccccc2)cc1 [drawing 9 n=4]

Continued, molecule first:

Molecule: N=C(N)c1ccc(OCCCCOc2ccc(C(=N)N)cc2)cc1 [Butamidine]
rescue of TNNT2 exon 5 mis-splicing [1]: lowered exon 5 inclusion levels below that of wild type
EC50 [1]: 23 ± 5 µM
EC50 [2]: 34 ± 7 µM
IC50 (MBNL1/(CUG)4 complex; [4]): 85 ± 17 µM

Molecule: N=C(N)c1ccc(OCCCCCCOc2ccc(C(=N)N)cc2)cc1 [Hexamidine]
EC50 ([1]; Homo sapiens): 12 ± 3 µM
cell toxicity (HeLa cells): low toxicity
EC50 ([2]; Homo sapiens): 15 ± 1 µM
IC50 (MBNL1/(CUG)4 complex; [4]): 26 ± 2 µM

Molecule: N=C(N)c1ccc(OCCCCCCCCCOc2ccc(C(=N)N)cc2)cc1 [Nonamidine]
rescue of TNNT2 exon 5 mis-splicing [1]: unable to rescue splicing defects before causing significant cell death
concentration that is toxic / causes significant cell death (HeLa cells; HeLa cells, TNNT2 splicing assay): 4 µM
EC50 [2]: 6 ± 1 µM
IC50 (MBNL1/(CUG)4 complex; [4]): 14 ± 1 µM

Molecule: N=C(N)c1ccc(OCCCCCCCCOc2ccc(C(=N)N)cc2)cc1 [Octamidine]
rescue of TNNT2 exon 5 mis-splicing [1]: slight rescue of TNNT2 mis-splicing
cell toxicity (HeLa cells): toxicity issues
EC50 [2]: 7 ± 1 µM
IC50 (MBNL1/(CUG)4 complex; [4]): 20 ± 1 µM

Molecule: N=C(N)c1ccc(OCCCOc2ccc(C(=N)N)cc2)cc1 [Propamidine]
rescue of TNNT2 exon 5 mis-splicing [1]: did not have the desired effect on TNNT2 mis-splicing
concentration that is toxic / causes significant cell death (HeLa cells; human): > 130 µM
EC50 ([2]; Homo sapiens): 64 ± 10 µM
IC50 (MBNL1/(CUG)4 complex; [4]): 250 ± 10 µM

Molecule: CC(=O)ON=C(N)c1ccc(OCCCCCCCOc2ccc(C(N)=NOC(C)=O)cc2)cc1 [acetoxy-amdine derivative of heptamidine]
cell toxicity of prodrugs relative to parent amidine (HeLa cells): less toxic than heptamidine

Molecule: CC(=O)ONC(=N)c1ccc(OCCCCCOc2ccc(C(=N)NOC(C)=O)cc2)cc1 [compound 128, 1,5-bis(4-acetoxyamidinophenoxy)pentane (diacetyldiamidoximeester)]
cell toxicity of prodrugs relative to parent amidine (HeLa cells): less toxic than pentamidine
activity of pentamidine prodrugs in the INSR splicing assay ([2]; HeLa cell splicing assay, FIG. 6): showed activity in the splicing assay

B1: (CUG)4 hairpin RNA (ssRNA)
RNA: GCUGCUGUUCGCUGCUG
binding result [3]: binds

Source: patent publication US20130281462A1, “ARYL DIAMIDINES AND PRODRUGS THEREOF FOR TREATING MYOTONIC DYSTROPHY” (University of Oregon, priority 2012, published 2013)
